Measured values published in patent US11002728B2, “Method for evaluating activity of G protein-coupled receptor (GPCR)” (RIKEN, priority 2017, dated 2021).
Each block holds one compound with its values, some of them ahead of it.

What was measured:
[1] = molecular target: T1, mGluR3 (Mus musculus, UniProt Q9QYS2); test: [3H]-LY341495 binding experiment, HEK293 membrane fraction expressing mGluR3
Description: HEK293 cells cultured to about 40% confluence in a 100-mm dish were transfected with mGluR3 pDNA and an empty pCAG vector as a mock each at 10 μg/dish by a calcium phosphate method. After the transfection, the cells were cultured in DMEM/F12 medium containing 10% FBS for 48 hours and were then collected, followed by centrifugation. The precipitation was washed with 1 mL of PBS (pH 7.4). Centrifugation was further performed. The precipitation was placed in a 1.5-mL tube and was homogenized with a pellet mixer in buffer A (50 mM HEPES (pH 6.5), 140 mM NaCl) in which 50% sucrose was dissolved, followed by centrifugation to separate supernatant and precipitate. […]
A cell membrane fraction containing mGluR3 was resuspended in HBSS (containing 15 mM HEPES (pH 7.1) and not containing NaHCO3, Sigma) having the same composition as that used in the single-molecule measurement, and the binding of [^3H]-LY341495 to the membrane was measured at room temperature. […] Each dot was excised from the nitrocellulose membrane and was placed in a cocktail for a liquid scintillation counter (Ultima Gold, PerkinElmer Life Sciences, Inc.), and the binding amount of [^3H]-LY341495 was quantified with LS6500 (Beckman Coulter). […] Kd was calculated from fitting result by an expression obtained by replacing the EC50 in Expression 3 mentioned above with kd. […] The IC50 was calculated based on Expression 4.

[2] = molecular target: T1, mGluR3; test: [35S]-GTPγS binding experiment (G protein activation ability of mGluR3, purified Go protein); type: biochemical; parameters: expressed in transfected cells; host or cells: HEK293 (pCAG-GS vector)
Description: Each mixture was left to stand at 20° C. for 30 minutes. [^35S]-GTPγS was added to the mixture to start GDP/GTPγS exchange reaction. The composition except the ligand of the final mixture solution (20 μL) was 50 mM HEPES (pH 6.5), 140 mM NaCl, 5 mM MgCl2, 0.01% DM, 0.03% sodium cholate, 5 nM [^35S]-GTPγS, 500 nM GTPγS (cold), and 500 nM GDP. A reaction stop solution (200 μL, 20 mM Tris/Cl (pH 7.4), 100 mM NaCl, 25 mM MgCl2, 500 nM GTPγS (cold), and 500 nM GDP) was added to the mixture solution at 30 seconds after the addition of [^35S]-GTPγS to stop the incorporation of [^35S]-GTPγS into G protein, and immediately all the reaction solution was passed through a nitrocellulose membrane with the dot-blot apparatus to separate [^35S]-GTPγS bound to G protein. Subsequently, the nitrocellulose membrane was washed with buffer C (200 μL, 20 mM Tris/Cl (pH 7.4), 100 mM NaCl, and 25 mM MgCl2) three times and was dried for 1 hour. Each dot was excised from the nitrocellulose membrane and was placed in a cocktail for a liquid scintillation counter (Ultima Gold, PerkinElmer Life Sciences, Inc.), and the binding amount of [^35S]-GTPγS was quantified with LS6500 (Beckman Coulter).

[3] = molecular target: T1, mGluR3; test: Two-color single-molecule imaging, colocalization of TMR-labeled mGluR3 and GFP-labeled CLC; type: cell-based; parameters: expressed in transfected cells; host or cells: HEK293 (pCAG-GS vector); conditions: active (100 μM LY379268) versus inactive state (100 nM LY341495)
Text: Colocalization of TMR-labeled mGluR3 and GFP-labeled CLC was defined as a track in which each bright spot was within 100 nm in the same frame. The positional accuracy of the bright spot tracking of TMR-labeled mGluR3 and GFP-labeled CLC was estimated to be 28 nm and 31 nm, respectively, from measurement of fixed samples. These values correspond to 1 SD of the displacement when fixed molecules were tracked. After image processing, the error between the positions of the same gold particle in two channels was estimated to be 18 nm. Accordingly, 100 nm corresponds to about 2 SD of the positional accuracy considering the total error. The time constant of colocalization was calculated by fitting the cumulative frequency distribution (FIG. 9(f)) by Expression 8.
The proportion of each component was calculated from the proportions of A1 and A2.

[4] = molecular target: T1, mGluR3; test: Single-molecule imaging of mGluR3 diffusive dynamics (MSD, DAv, VB-HMM diffusion states) in HEK293 cells; conditions: for IC50: IC50 of the LY379268 dependent change of DAv; for change of MSD of mGluR3: MSD-Δt plots, FIG. 1(c to e)
Description: A DNA sequence encoding HaloTag7 (Promega Corporation) was amplified by PCR and was fused to the C-terminal sequence of mouse mGluR3 using In-Fusion HD Cloning Kit (Clontech Laboratories, Inc.). In order to quantify the expression level of HaloTag-fused mGluR3 by Western blotting, the epitope sequence of a monoclonal antibody Rho 1D4 recognizing the C-terminus of bovine rhodopsin was added immediately after the HaloTag sequence. Complementary DNAs of mGluR3 were inserted into a pCAG-GS vector^21.
HEK293 cells were cultured in a DMEM/F12 (Gibco) medium added with 15 mM HEPES (pH 7.3), 29 mM NaHCO3, and 10% FBS at 37° C. in an environment containing 5% CO2. On the day before the observation, the HEK293 cells on a 60-mm dish (IWAKI) with a cover glass (Matsunami Glass Ind., Ltd.) were transfected with a plasmid DNA (pDNA) of HaloTag-fused mGluR3 using Lipofectamine 3000 (Invitrogen). A transfection reagent and pDNA (pDNA (0.1 μg), P3000 reagent (0.2 μL), Lipofectamine 3000 reagent (2.5 μL), Opti-MEM (120 μL, Gibco)) were mixed, and the mixture was then left to stand at room temperature for 15 minutes and was added to HEK293 cells on the 60-mm dish containing DMEM/F12 (3 mL). In two-color single-molecule measurement, pDNA (0.02 μg) of GFP-fused CLC was transfected together with HaloTag-fused mGluR3. After culturing at 37° C. in an environment containing 5% CO2 for 3 hours, the medium was replaced with DMEM (3 mL, Sigma) not containing phenol red and containing 10% FBS. After culturing overnight, the medium was replaced with 3 mL of DMEM containing 300 nM HaloTag TMR ligand (Promega Corporation) and not containing phenol red and FBS, followed by being left to stand at 37° C. in an environment containing 5% CO2 for 30 minutes to specifically stain the HaloTag-fused mGluR3 of the HEK293 cells. […] In single-molecule imaging, the cover glass was placed in a metal chamber (Invitrogen) and was washed with 400 μL of Hanks' balanced salt solution (HBSS (Sigma); containing 15 mM HPEPS (pH 7.1) and not containing NaHCO3) five times, followed by observation at room temperature (25° C.). TMR-labeled mGluR3 on the cell membranes of the HEK293 cells were excited with total internal reflection illumination on an inverted fluorescence microscope (TE2000, Nikon Corporation), and single-molecule imaging was performed. […] The fluorescences of TMR and GFP were wavelength dependently separated with dichroic mirror 59004b (Chroma) in a two-optical path branching system (M202J, Nikon Corporation), were allowed to pass through a band pass filter (GFP: ET525/50m, TMR: ET605/70m, Chroma), and were then photographed simultaneously by two EM-CCD cameras (ImagEM, Hamamatsu Photonics K.K.).

[5] = molecular target: T2, FFAR4 (Homo sapiens, UniProt Q5NUL3); test: Single-molecule imaging of GPCR diffusive dynamics (DAv) in HEK293 cells; type: cell-based; conditions: 100 nM ligand, mean ± standard error, n=20 cells, vehicle 0.083
T2 construct: host or cells: HEK293
T2 sequence (Q5NUL3 1-361): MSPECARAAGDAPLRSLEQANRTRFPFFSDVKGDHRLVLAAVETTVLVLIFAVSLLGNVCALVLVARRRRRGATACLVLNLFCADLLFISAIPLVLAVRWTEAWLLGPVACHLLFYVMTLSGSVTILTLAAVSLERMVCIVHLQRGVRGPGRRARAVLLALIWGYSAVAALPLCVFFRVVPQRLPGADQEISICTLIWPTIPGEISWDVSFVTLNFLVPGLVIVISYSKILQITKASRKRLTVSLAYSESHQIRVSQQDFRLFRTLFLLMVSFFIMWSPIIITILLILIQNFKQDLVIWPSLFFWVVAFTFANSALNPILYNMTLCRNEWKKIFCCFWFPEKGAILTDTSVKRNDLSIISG
Description: HEK293 cells were cultured in a DMEM/F12 (Gibco) medium added with 15 mM HEPES (pH 7.3), 29 mM NaHCO3, and 10% FBS at 37° C. in an environment containing 5% CO2. On the day before the observation, the HEK293 cells on a 60-mm dish (IWAKI) with a cover glass (Matsunami Glass Ind., Ltd.) were transfected with a plasmid DNA (pDNA) of HaloTag-fused mGluR3 using Lipofectamine 3000 (Invitrogen). A transfection reagent and pDNA (pDNA (0.1 μg), P3000 reagent (0.2 μL), Lipofectamine 3000 reagent (2.5 μL), Opti-MEM (120 μL, Gibco)) were mixed, and the mixture was then left to stand at room temperature for 15 minutes and was added to HEK293 cells on the 60-mm dish containing DMEM/F12 (3 mL). […] After culturing at 37° C. in an environment containing 5% CO2 for 3 hours, the medium was replaced with DMEM (3 mL, Sigma) not containing phenol red and containing 10% FBS. […] TMR-labeled mGluR3 on the cell membranes of the HEK293 cells were excited with total internal reflection illumination on an inverted fluorescence microscope (TE2000, Nikon Corporation), and single-molecule imaging was performed. […]

[6] = molecular target: HRH1 (Homo sapiens, UniProt P35367); conditions: HRH1 in HEK293 cells, 1 μM ligand, mean ± standard error, n=20 cells; vehicle 0.064
[7] = molecular target: F2R (Homo sapiens, UniProt P25116); conditions: F2R in HEK293 cells, 10 μM ligand, mean ± standard error, n=20 cells; vehicle 0.084
[8] = molecular target: T3, CXCR4 (Homo sapiens, UniProt P61073); test: Single-molecule imaging of GPCR diffusive dynamics (DAv) in HEK293 cells; type: cell-based; conditions: 20 nM ligand, mean ± standard error, n=20 cells, vehicle 0.087
T3 construct: host or cells: HEK293

[9] = molecular target: HTR2A (Homo sapiens, UniProt P28223); test: as above; type: cell-based; conditions: 10 μM ligand, mean ± standard error, n=20 cells, vehicle 0.079
Chain of HTR2A (P28223 whole entry): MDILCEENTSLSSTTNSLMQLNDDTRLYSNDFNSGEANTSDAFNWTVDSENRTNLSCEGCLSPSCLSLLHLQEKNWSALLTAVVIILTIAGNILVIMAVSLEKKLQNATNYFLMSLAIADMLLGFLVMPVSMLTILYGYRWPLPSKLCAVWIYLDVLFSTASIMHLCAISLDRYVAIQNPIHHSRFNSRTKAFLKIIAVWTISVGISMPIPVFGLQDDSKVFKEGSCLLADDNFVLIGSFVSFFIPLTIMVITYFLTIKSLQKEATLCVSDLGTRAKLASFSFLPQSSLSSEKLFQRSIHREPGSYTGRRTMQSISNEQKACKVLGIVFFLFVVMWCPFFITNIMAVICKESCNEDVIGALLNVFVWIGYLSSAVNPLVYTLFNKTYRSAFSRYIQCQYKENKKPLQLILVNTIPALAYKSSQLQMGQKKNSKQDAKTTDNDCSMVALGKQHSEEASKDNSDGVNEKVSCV

T1 sequence (Q9QYS2 23-879): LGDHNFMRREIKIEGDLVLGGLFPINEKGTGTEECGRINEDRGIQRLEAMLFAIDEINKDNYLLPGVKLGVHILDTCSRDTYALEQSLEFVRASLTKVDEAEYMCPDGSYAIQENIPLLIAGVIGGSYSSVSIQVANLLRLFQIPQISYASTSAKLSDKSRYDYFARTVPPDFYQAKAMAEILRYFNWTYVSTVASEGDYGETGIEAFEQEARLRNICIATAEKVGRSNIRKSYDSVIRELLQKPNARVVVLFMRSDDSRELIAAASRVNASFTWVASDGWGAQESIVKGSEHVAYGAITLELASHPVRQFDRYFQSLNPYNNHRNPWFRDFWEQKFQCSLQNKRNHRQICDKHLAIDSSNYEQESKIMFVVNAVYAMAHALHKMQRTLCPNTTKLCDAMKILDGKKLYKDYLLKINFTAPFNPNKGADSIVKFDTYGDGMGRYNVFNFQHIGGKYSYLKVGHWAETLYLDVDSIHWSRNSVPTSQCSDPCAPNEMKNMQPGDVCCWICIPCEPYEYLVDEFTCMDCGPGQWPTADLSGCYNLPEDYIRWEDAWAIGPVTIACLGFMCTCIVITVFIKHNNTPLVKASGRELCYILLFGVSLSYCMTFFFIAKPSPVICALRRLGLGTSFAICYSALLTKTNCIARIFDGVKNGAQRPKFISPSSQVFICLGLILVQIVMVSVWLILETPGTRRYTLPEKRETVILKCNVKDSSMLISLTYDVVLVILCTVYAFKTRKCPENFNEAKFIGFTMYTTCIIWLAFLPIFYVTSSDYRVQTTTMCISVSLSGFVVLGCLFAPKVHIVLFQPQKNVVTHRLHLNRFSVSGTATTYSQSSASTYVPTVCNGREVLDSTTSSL
T3 sequence (P61073 whole entry): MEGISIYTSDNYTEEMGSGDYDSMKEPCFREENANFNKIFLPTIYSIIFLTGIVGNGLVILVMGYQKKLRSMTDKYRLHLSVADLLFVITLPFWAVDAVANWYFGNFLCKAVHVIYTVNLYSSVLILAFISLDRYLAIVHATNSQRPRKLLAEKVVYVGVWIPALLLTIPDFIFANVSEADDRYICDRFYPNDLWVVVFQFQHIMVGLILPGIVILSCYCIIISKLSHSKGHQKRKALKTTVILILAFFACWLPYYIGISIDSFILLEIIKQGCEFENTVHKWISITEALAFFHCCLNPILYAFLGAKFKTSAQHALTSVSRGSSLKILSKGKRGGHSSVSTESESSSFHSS
Chain of HRH1 (P35367 whole entry): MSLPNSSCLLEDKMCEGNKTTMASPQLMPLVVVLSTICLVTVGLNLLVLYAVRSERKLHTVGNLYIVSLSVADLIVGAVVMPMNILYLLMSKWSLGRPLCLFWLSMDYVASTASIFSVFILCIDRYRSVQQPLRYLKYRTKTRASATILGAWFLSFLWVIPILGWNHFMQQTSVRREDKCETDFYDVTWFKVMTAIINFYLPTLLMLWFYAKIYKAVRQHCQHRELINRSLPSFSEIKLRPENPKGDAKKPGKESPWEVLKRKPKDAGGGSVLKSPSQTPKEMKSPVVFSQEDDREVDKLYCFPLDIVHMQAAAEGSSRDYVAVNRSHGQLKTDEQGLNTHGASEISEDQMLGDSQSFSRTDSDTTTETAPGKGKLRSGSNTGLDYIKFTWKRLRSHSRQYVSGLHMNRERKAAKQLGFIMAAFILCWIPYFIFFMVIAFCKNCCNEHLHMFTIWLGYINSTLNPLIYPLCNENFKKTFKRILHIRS
Chain of F2R (P25116 22-425): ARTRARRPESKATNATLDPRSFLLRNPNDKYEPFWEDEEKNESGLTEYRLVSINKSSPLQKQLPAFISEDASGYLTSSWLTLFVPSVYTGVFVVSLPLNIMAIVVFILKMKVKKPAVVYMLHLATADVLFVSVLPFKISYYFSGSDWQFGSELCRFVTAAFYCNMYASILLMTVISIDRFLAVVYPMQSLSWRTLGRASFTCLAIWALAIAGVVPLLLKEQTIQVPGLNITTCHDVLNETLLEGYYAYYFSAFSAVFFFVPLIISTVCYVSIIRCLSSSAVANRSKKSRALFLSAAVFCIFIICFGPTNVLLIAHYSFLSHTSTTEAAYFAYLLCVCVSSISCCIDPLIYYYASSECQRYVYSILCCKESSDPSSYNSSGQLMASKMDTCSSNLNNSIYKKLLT

Compound: CC/C=C\C/C=C\C/C=C\C/C=C\C/C=C\C/C=C\CCC(=O)O [DHA]
DAv, Ligand [5]: 0.048 ± 0.0073 μm^2/s

Compound: MNI137
influence on the binding affinity of LY379268 ([1]; 1 μM MNI137, competition with 100 nM [3H]-LY341495, FIG. 4(d)): did not influence the binding affinity of LY379268
effect on LY379268-dependent G protein activation ability ([2]; 1 μM MNI137, 100 nM LY341495 present, FIG. 4(f)): suppresses the LY379268-dependent increase of G protein activation ability
effect on LY379268 concentration-dependent change of DAv ([4]; 1 μM, presence of 100 nM LY341495, FIG. 4(b)): the LY379268 concentration-dependent decrease of DAv was suppressed
change of MSD of mGluR3 ([4]; n=20 cells): the LY379268-dependent decrease of the MSD was suppressed

Compound: TRAP-6
DAv, Ligand [7]: 0.060 ± 0.0017 μm^2/s

Compound: CXCL12: chemokine, agonist used on CXCR4
DAv, Ligand [8]: 0.068 ± 0.0017 μm^2/s

Second part, led by results:

IC50 [1]: 550 ± 80 nM
EC50 ([2]; absence of other ligands, FIG. 4(e), n=3, read-out: EC50 of the LY379268-dependent increase of the G protein activation ability of mGluR3): 25 ± 2.9 nM
increase in the colocalization probability of mGluR3 and CLC ([3]; FIG. 10(e)): about 1.6 fold
increase of the Long-time constant of colocalization of mGluR3 and CLC ([3]; FIG. 10(g)): about two-fold
IC50 ([4]; FIG. 4(a), absence of other ligands, n=20 cells): 1190 ± 20 nM
IC50 ([4]; FIG. 4(b), presence of 100 nM LY341495, n=20 cells): 1030 ± 80 nM
change of MSD of mGluR3 ([4]; n=20 cells): decreased depending on the concentration
DAv, Ligand ([4]; mGluR3 in HEK293 cells, 100 μM ligand, mean ± standard error, n=20 cells, vehicle 0.047): 0.039 ± 0.0018 μm^2/s
Compound: N[C@@]1(C(=O)O)CO[C@H]2[C@H](C(=O)O)[C@H]21 [LY379268]
ligand-dependent change of the proportions of the diffusion states (VB-HMM) ([4]; concentration dependent, FIG. 5(c, d)): increases in the immobile and slow states and a decrease in the fast state

DAv, Ligand [6]: 0.045 ± 0.0025 μm^2/s
Compound: NCCc1c[nH]cn1 [histamine]

DAv, Ligand [9]: 0.065 ± 0.0034 μm^2/s
Compound: NCCc1c[nH]c2ccc(O)cc12 [serotonine]
